From patent US7935702B2, “Substituted biaryl quinolin-4-ylamine analogues” (Neurogen Corporation, priority 2004, dated 2011)

Biological target: VR (Homo sapiens, UniProt Q8NER1)
Experiment: not given
Details: background; typical value; cited from earlier work

VR, sequence (Q8NER1 whole entry): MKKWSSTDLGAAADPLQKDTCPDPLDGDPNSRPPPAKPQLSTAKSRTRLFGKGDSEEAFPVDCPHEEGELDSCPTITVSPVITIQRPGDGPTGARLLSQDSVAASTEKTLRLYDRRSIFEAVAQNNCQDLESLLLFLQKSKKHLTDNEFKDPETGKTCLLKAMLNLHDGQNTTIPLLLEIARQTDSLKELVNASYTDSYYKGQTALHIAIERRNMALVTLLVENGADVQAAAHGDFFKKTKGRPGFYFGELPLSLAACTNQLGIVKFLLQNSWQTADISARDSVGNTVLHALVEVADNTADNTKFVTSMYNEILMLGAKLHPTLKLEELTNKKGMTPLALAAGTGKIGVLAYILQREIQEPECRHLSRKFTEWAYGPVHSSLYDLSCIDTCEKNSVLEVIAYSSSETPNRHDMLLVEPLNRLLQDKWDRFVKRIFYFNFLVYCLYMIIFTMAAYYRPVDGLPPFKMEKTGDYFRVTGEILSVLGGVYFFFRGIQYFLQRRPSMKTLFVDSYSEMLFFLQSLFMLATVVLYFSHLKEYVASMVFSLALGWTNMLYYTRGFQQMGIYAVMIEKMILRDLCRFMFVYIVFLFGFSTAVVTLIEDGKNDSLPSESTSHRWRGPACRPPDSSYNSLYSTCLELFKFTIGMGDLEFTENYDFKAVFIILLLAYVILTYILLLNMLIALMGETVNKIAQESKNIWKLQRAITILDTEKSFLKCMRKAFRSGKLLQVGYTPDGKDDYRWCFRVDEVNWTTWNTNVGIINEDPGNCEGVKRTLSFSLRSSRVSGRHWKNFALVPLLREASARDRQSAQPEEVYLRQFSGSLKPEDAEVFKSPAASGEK

Row | Compound | Ki [nM]
1 | Cl.Cl.Cl.Cl.Cl.Cl.N.N.N.N.N.N.N.N.N.N.N.N.N.N.[O-2].[O-2].[Ru+3].[Ru+3].[Ru+4] [ruthenium red] | ≥ 140000

Biological target: T1, human capsaicin receptor (Homo sapiens, UniProt Q8NER1)
T1 construct: expressed in transfected cells
Experiment: Calcium mobilization assay, determination of antagonist activity (Example 6)
Assay type: cell-based
Details: Table I; IC50 determined as described in Example 6; read-out: IC50
Procedure: A cDNA encoding full length human capsaicin receptor (SEQ ID NO:1, 2 or 3 of U.S. Pat. No. 6,482,611) is subcloned in the plasmid pBK-CMV (Stratagene, La Jolla, Calif.) for recombinant expression in mammalian cells.
Human embryonic kidney (HEK293) cells are transfected with the pBK-CMV expression construct encoding the full length human capsaicin receptor using standard methods. The transfected cells are selected for two weeks in media containing G418 (400 μg/ml) to obtain a pool of stably transfected cells. Independent clones are isolated from this pool by limiting dilution to obtain clonal stable cell lines for use in subsequent experiments.
This Example illustrates representative calcium mobilization assays for use in evaluating test compounds for agonist and antagonist activity.
Cells transfected with expression plasmids (as described in Example 4) and thereby expressing human capsaicin receptor are seeded and grown to 70-90% confluency in FALCON black-walled, clear-bottomed 96-well plates (#3904, BECTON-DICKINSON, Franklin Lakes, N.J.). The culture medium is emptied from the 96 well plates and FLUO-3 AM calcium sensitive dye (Molecular Probes, Eugene, Oreg.) is added to each well (dye solution: 1 mg FLUO-3 AM, 440 μL DMSO and 440 μl 20% pluronic acid in DMSO, diluted 1:250 in Krebs-Ringer HEPES (KRH) buffer (25 mM HEPES, 5 mM KCl, 0.96 mM NaH2PO4, 1 mM MgSO4, 2 mM CaCl2, 5 mM glucose, 1 mM probenecid, pH 7.4), 50 μl diluted solution per well). Plates are covered with aluminum foil and incubated at 37° C. for 1-2 hours in an environment containing 5% CO2. After the incubation, the dye is emptied from the plates, and the cells are washed once with KRH buffer, and resuspended in KRH buffer.
To measure the ability of a test compound to agonize or antagonize a calcium mobilization response in cells expressing capsaicin receptors to capsaicin or other vanilloid agonist, the EC50 of the agonist capsaicin is first determined. An additional 20 μl of KRH buffer and 1 μl DMSO is added to each well of cells, prepared as described above. 100 μl capsaicin in KRH buffer is automatically transferred by the FLIPR instrument to each well. Capsaicin-induced calcium mobilization is monitored using either FLUOROSKAN ASCENT (Labsystems; Franklin, Mass.) or FLIPR (fluorometric imaging plate reader system; Molecular Devices, Sunnyvale, Calif.) instruments. Data obtained between 30 and 60 seconds after agonist application are used to generate an 8-point concentration response curve, with final capsaicin concentrations of 1 nM to 3 μM. KALEIDAGRAPH software (Synergy Software, Reading, Pa.) is used to fit the data to the equation: y=a*(1/(1+(b/x)^c)) to determine the 50% excitatory concentration (EC50) for the response. In this equation, y is the maximum fluorescence signal, x is the concentration of the agonist or antagonist (in this case, capsaicin), a is the Emax, b corresponds to the EC50 value and c is the Hill coefficient. Determination of Agonist Activity
Test compounds are dissolved in DMSO, diluted in 20 μl KRH buffer so that the final concentration of test compounds in the assay well is between 1 μM and 5 μM, and added to cells prepared as described above. The 96 well plates containing prepared cells and test compounds are incubated in the dark, at room temperature for 0.5 to 6 hours. It is important that the incubation not continue beyond 6 hours. Just prior to determining the fluorescence response, 100 μl capsaicin in KRH buffer at twice the EC50 concentration determined as described above is automatically added by the FLIPR instrument to each well of the 96 well plate for a final sample volume of 200 μl and a final capsaicin concentration equal to the EC50. The final concentration of test compounds in the assay wells is between 1 μM and 5 μM. […]

T1 sequence (Q8NER1 whole entry): as above

Row | Compound | IC50 [nM]
2 | CCCCN(CC)c1cc(C(F)(F)F)c(-c2cnc3c(Nc4ccc(C(F)(F)F)cn4)ccnc3n2)nn1 [compound 152, 3-{6-[butyl(ethyl)amino]-4-(trifluoromethyl)pyridazin-3-yl}-N-[5-(trifluoromethyl)-pyridin-2-yl]pyrido[2,3-b]pyrazin-8-amine] | < 1000
3 | CCCN(CC1CC1)c1cc(C(F)(F)F)c(-c2cnc3c(Nc4ccc(C(F)(F)F)cn4)ccnc3n2)nn1 [compound 153, 3-{6-[(cyclopropylmethyl)-(propyl)amino]-4-(trifluoro-methyl)pyridazin-3-yl}-N-[5-(trifluoromethyl)pyridin-2-yl]pyrido[2,3-b]pyrazin-8-amine] | < 1000
4 | CN(C)CC1CCCCN1c1cc(C(F)(F)F)c(-c2cnc3c(Nc4ccc(C(F)(F)F)cn4)ccnc3n2)nn1 (stereo not shown) [compound 164, 3-[6-{2-[(dimethylamino)-methyl]piperidin-1-yl}-4-(trifluoromethyl)pyridazin-3-yl)-N-[5-(trifluoromethyl)-pyridin-2-yl]pyrido[2,3-b]pyrazin-8-amine] | < 1000
5 | O[C@@H]1CCN(c2cc(C(F)(F)F)c(-c3cnc4c(Nc5ccc(C(F)(F)F)cn5)ccnc4n3)nn2)C1 [compound 170, (R)-1-[5-(trifluoromethyl)-6-(8-{[5-(trifluoromethyl)-pyridin-2-yl]amino}-pyrido[2,3-b]pyrazin-3-yl)-pyridazin-3-yl]pyrrolidin-3-ol] | < 1000
6 | CCN(CCCO)c1cc(C(F)(F)F)c(-c2cnc3c(Nc4ccc(C(F)(F)F)cn4)ccnc3n2)nn1 [compound 177, 3-{ethyl[5-(trifluoromethyl)-6-(8-{[5-(trifluoromethyl)-pyridin-2-yl]amino}-pyrido[2,3-b]pyrazin-3-yl)-pyridazin-3-yl]amino}propan-1-ol] | < 1000
7 | CC(C)N(CCCO)c1cc(C(F)(F)F)c(-c2cnc3c(Nc4ccc(C(F)(F)F)cn4)ccnc3n2)nn1 [compound 178, 3-{isopropyl[5-(trifluoro-methyl)-6-(8-{[5-(trifluoro-methyl)pyridin-2-yl]amino}-pyrido[2,3-b]pyrazin-3-yl)pyridazin-3-yl]amino}propan-1-ol] | < 1000
8 | OC1CN(c2cc(C(F)(F)F)c(-c3cnc4c(Nc5ccc(C(F)(F)F)cn5)ccnc4n3)nn2)C1 [compound 179, 1-[5-(trifluoromethyl)-6-(8-{[5-(trifluoromethyl)pyridin-2-yl]amino}pyrido[2,3-b]pyrazin-3-yl)pyridazin-3-yl]azetidin-3-ol] | < 1000

Further lines, results first:

Row | IC50 [nM] | Compound
9 | < 1000 | C[C@@H](O)CNc1cc(C(F)(F)F)c(-c2cnc3c(Nc4ccc(C(F)(F)F)cn4)ccnc3n2)nn1 [compound 125, (R)-1-{[5-(trifluoromethyl)-6-(8-{[5-(trifluoromethyl)-pyridin-2-yl]amino}-pyrido[2,3-b]pyrazin-3-yl)pyridazin-3-yl]amino}propan-2-ol]
10 | < 1000 | C[C@H](O)CNc1cc(C(F)(F)F)c(-c2cnc3c(Nc4ccc(C(F)(F)F)cn4)ccnc3n2)nn1 [compound 126, (S)-1-{[5-(trifluoromethyl)-6-(8-{[5-(trifluoromethyl)-pyridin-2-yl]amino}-pyrido[2,3-b]pyrazin-3-yl)pyridazin-3-yl]amino}propan-2-ol]
11 | < 1000 | C=CCN(C)c1cc(C(F)(F)F)c(-c2cnc3c(Nc4ccc(C(F)(F)F)cn4)ccnc3n2)nn1 [compound 141, 3-{6-[allyl(methyl)amino]-4-(trifluoromethyl)pyridazin-3-yl}-N-[5-(trifluoromethyl)-pyridin-2-yl]pyrido[2,3-b]pyrazin-8-amine]
12 | < 1000 | CC(C)CN(C)c1cc(C(F)(F)F)c(-c2cnc3c(Nc4ccc(C(F)(F)F)cn4)ccnc3n2)nn1 [compound 145, 3-{6-[isobutyl(methyl)amino]-4-(trifluoromethyl)pyridazin-3-yl}-N-[5-(trifluoromethyl)-pyridin-2-yl]pyrido[2,3-b]pyrazin-8-amine]
13 | < 1000 | C=CCN(CC=C)c1cc(C(F)(F)F)c(-c2cnc3c(Nc4ccc(C(F)(F)F)cn4)ccnc3n2)nn1 [compound 150, 3-[6-(diallylamino)-4-(trifluoromethyl)pyridazin-3-yl]-N-[5-(trifluoromethyl)-pyridin-2-yl]pyrido[2,3-b]pyrazin-8-amine]
